Values quoted from earlier work as cited in patent US5493006A, “Cyclic CRF analogs” (The Salk Institute for Biological Studies, priority 1993, dated 1996).
“Also recorded” adds a separate entry of the source. Ends that are not written are not given here.

How the values were obtained:
[1] = test system: secretion of ACTH and β-END-LI; details: in vitro and in vivo; background statement
[2] = injected peripherally; background statement

Substance	stimulation of ACTH and β-endorphin-like activities (β-END-Li) [1]	lowering of blood pressure [2]
rCRF: rat CRF, a homologous, amidated hentetracontapeptide; same formula as human CRF (SEEPPISLDLTFHLLREVLEMARAEQLAQQAHSNRKLMEII-NH2; UniProt P01143 145-185, looked up)	stimulate ACTH and β-endorphin-like activities (β-END-Li) in vitro and in vivo	substantially lower blood pressure
oCRF: ovine corticotropin releasing factor, a 41-residue amidated peptide (SQEPPISLDLTFHLLREVLEMTKADQLAQQAHSNRKLLDIA-NH2; UniProt P01142 148-188, looked up)	stimulates the secretion of ACTH and β-endorphin; also recorded: stimulate ACTH and β-endorphin-like activities (β-END-Li) in vitro and in vivo	lowers blood pressure; also recorded: substantially lower blood pressure
